# From patent publication US9340507B2, “Substituted 4-pyridones and their use as inhibitors of neutrophil elastase activity” (Boehringer Ingelheim International GmbH, priority 2012, dated 2016)
# Molecular target: Human neutrophil elastase (Homo sapiens (Human), UniProt P08246)
# Test: Human Neutrophil Elastase Assay
# Format: biochemical
# Conditions: substrate MeOSuc-Ala-Ala-Pro-Val-AMC 250 μM, pH 7.5, fluorescence
# Protocol: Human Neutrophil Elastase Assay
# All other materials were of the highest grade commercially available.
# The following buffers were used: Compound buffer: 100 mM Tris, 500 mM NaCl, adjusted to pH 7.5; Assay buffer: 100 mM Tris, 500 mM NaCl, adjusted to pH 7.5, containing 0.01% BSA.
# Assay conditions: Test compounds were prediluted in DMSO and subsequently in compound buffer (5% DMSO final). […] After inactivation of the enzyme, fluorescence intensities were measured at 380 nm excitation and 460 nm emission wavelengths.
# Each plate contains wells with a high value control (DMSO+enzyme+substrate) and wells with a low value control (DMSO+inactivated enzyme+substrate). IC50 values were estimated using a sigmoidal concentration response curve with variable slope. Means of low values were taken as 0%, means of high values as 100%. IC50 values of selected compound in the Neutrophil Elastase assay: […]
# Chain of Human neutrophil elastase (P08246 30-267): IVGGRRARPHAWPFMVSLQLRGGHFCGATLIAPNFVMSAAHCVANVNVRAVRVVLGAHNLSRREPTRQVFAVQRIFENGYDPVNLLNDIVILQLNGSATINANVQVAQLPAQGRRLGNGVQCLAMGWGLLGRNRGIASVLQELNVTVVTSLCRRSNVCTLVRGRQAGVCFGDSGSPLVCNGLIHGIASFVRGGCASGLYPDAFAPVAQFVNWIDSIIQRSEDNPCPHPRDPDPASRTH
row,SMILES,IC50
1,"Cc1c(-c2cccc(C(F)F)c2)c(=O)c(C(=O)NCc2ccc(S(C)(=O)=O)cn2)cn1C1CCC1 [Example 18.2, 1-Cyclobutyl-5-(3-difluoromethyl-phenyl)-6-methyl-4-oxo-1,4-dihydro-pyridine-3-carboxylic acid (5-methanesulfonyl-pyridin-2-ylmethyl)-amide]",35 nM
2,"CCC(CC)n1cc(C(=O)NCc2ccc(S(C)(=O)=O)cc2)c(=O)c(-c2cccc(C(F)F)c2)c1C [Example 15.2, 5-(3-Difluoromethyl-phenyl)-1-(1-ethyl-propyl)-6-methyl-4-oxo-1,4-dihydro-pyridine-3-carboxylic acid 4-methanesulfonyl-benzylamide]",8 nM
3,"CCn1cc(C(=O)NCc2ccc(S(C)(=O)=O)cc2)c(=O)c(-c2cccc(C(F)F)c2)c1C [Example 10, 5-(3-Difluoromethyl-phenyl)-1-ethyl-6-methyl-4-oxo-1,4-dihydro-pyridine-3-carboxylic acid 4-methanesulfonyl-benzylamide]",29 nM
4,Cc1nnc(CNC(=O)c2cn(C(C)C)c(C)c(-c3cccc(C(F)F)c3)c2=O)o1 [Example 4.3],27 nM
5,"Cc1c(-c2ccnc(C(F)(F)F)c2)c(=O)c(C(=O)NCc2ccc([S+](C)[O-])cc2)cn1C(C)C (stereo not shown) [Example 27.2, 1-Isopropyl-2-methyl-4-oxo-2′-trifluoromethyl-1,4-dihydro-[3,4′]bipyridinyl-5-carboxylic acid 4-methanesulfinyl-benzylamide]",51 nM
6,"Cc1cc(S(C)(=O)=O)ccc1CNC(=O)c1cn(C(C)C)c(C)c(-c2cccc(C(F)(F)F)c2)c1=O [Example 36, 1-Isopropyl-6-methyl-4-oxo-5-(3-trifluoromethyl-phenyl)-1,4-dihydro-pyridine-3-carboxylic acid 4-methanesulfonyl-2-methyl-benzylamide]",19 nM
7,"Cc1c(-c2cccc(C(F)(F)F)c2)c(=O)c(C(=O)NCc2ccc(S(C)(=O)=O)c(F)c2)cn1C(C)C [Example 32, 1-Isopropyl-6-methyl-4-oxo-5-(3-trifluoromethyl-phenyl)-1,4-dihydro-pyridine-3-carboxylic acid 3-fluoro-4-methanesulfonyl-benzylamide]",15 nM
8,"Cc1c(-c2cccc(C(F)(F)F)c2)c(=O)c(C(=O)NCc2ccc(S(C)(=O)=O)cc2)cn1C1CC1 [Example 6, 1-Cyclopropyl-6-methyl-4-oxo-5-(3-trifluoromethyl-phenyl)-1,4-dihydro-pyridine-3-carboxylic acid 4-methanesulfonyl-benzylamide]",30 nM

# The remaining compounds from weak to strong by IC50, led by results:
row,IC50,SMILES
1,98 nM,Cc1c(-c2cccc(C(F)F)c2)c(=O)c(C(=O)NCc2cccnn2)cn1C(C)C [Example 4.1]
2,40 nM,"CC[C@@H](C)n1cc(C(=O)NCc2ccc(S(C)(=O)=O)cn2)c(=O)c(-c2ccnc(C(F)(F)F)c2)c1C [Example 19.3, (R)-1-sec-Butyl-2-methyl-4-oxo-2′-trifluoromethyl-1,4-dihydro-[3,4′]bipyridinyl-5-carboxylic acid (5-methanesulfonyl-pyridin-2-ylmethyl)-amide]"
3,20 nM,Cc1c(-c2cccc(C(F)(F)F)c2)c(=O)c(C(=O)NCc2ccc(CN3CCCC3=O)cc2)cn1C(C)C [Example 3.9]
4,9 nM,"CC[C@H](C)n1cc(C(=O)NCc2ccc(S(C)(=O)=O)cc2)c(=O)c(-c2cccc(C(F)(F)F)c2)c1C [Example 12.1, (S)-1-sec-Butyl-6-methyl-4-oxo-5-(3-trifluoromethyl-phenyl)-1,4-dihydro-pyridine-3-carboxylic acid 4-methanesulfonyl-benzylamide]"
5,7.8 nM,"Cc1c(-c2cccc(C(F)F)c2)c(=O)c(C(=O)NCc2ccc3c(c2)C=CS3(=O)=O)cn1C(C)C [Example 50, 5-(3-Difluoromethyl-phenyl)-1-isopropyl-6-methyl-4-oxo-1,4-dihydro-pyridine-3-carboxylic acid (1,1-dioxo-1H-1λ^6-benzo[b]thiophen-5-ylmethyl)-amide1]"
